Source: the supplement of paper PMC10307832

Key:
Assay in all cases: relative viability (nuclei count vs DMSO), 5 days (fraction); higher = more cells survive
Carboplatin + Crizotinib = compound: C1CC(C1)(C(=O)O)C(=O)O.[NH2-].[NH2-].[Pt+2] [Carboplatin] + C[C@@H](Oc1cc(-c2cnn(C3CCNCC3)c2)cnc1N)c1c(Cl)ccc(F)c1Cl [Crizotinib] (partner 1 µM)
In short: (§1)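 One day after seeding in 1536-well plates, lung cancer cell lines were dosed by pin tool. Dosing was either single-drug or a fixed anchor-drug dose plus five library-drug doses (not always all listed) in √10 steps. After 5 days, nuclei were stained in one fix-and-stain step and counted on 4× images, and relative viability is the nuclei count of treated wells over that of vehicle wells, given as the median of duplicate plates.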

GSK126 + Palbociclib = compound: CC[C@H](C)N1C=C(C2=C(C=C(C=C21)C3=CN=C(C=C3)N4CCNCC4)C(=O)NCC5=C(C=C(NC5=O)C)C)C [GSK126] + CC(=O)c1c(C)c2cnc(Nc3ccc(N4CCNCC4)cn3)nc2n(C2CCCC2)c1=O [Palbociclib] (partner 0.5 µM)
In short: as §1

MLN4924 + Vorinostat = compound: NS(=O)(=O)OC[C@@H]1C[C@@H](n2ccc3c(N[C@H]4CCc5ccccc54)ncnc32)C[C@@H]1O [MLN4924] + O=C(CCCCCCC(=O)Nc1ccccc1)NO [Vorinostat] (partner 1 µM)
In short: as §1

Cell Line	relative viability (Carboplatin + Crizotinib; first compound 0.08 µM)	relative viability (Carboplatin + Crizotinib; first compound 0.253 µM)	relative viability (Carboplatin + Crizotinib; first compound 0.8 µM)	relative viability (Carboplatin + Crizotinib; first compound 2.53 µM)	relative viability (Carboplatin + Crizotinib; first compound 8 µM)	relative viability (GSK126 + Palbociclib; first compound 0.08 µM)	relative viability (GSK126 + Palbociclib; first compound 0.253 µM)	relative viability (GSK126 + Palbociclib; first compound 0.8 µM)	relative viability (GSK126 + Palbociclib; first compound 2.53 µM)	relative viability (GSK126 + Palbociclib; first compound 8 µM)	relative viability (MLN4924 + Vorinostat; first compound 0.04 µM)	relative viability (MLN4924 + Vorinostat; first compound 0.1265 µM)	relative viability (MLN4924 + Vorinostat; first compound 0.4 µM)	relative viability (MLN4924 + Vorinostat; first compound 1.265 µM)	relative viability (MLN4924 + Vorinostat; first compound 4 µM)
PC-14	0.895	0.856	0.851	0.83	0.532	0.517	0.505	0.539	0.566	0.469	0.81	0.781	0.154	0.0306	0.0361
HCC-15	0.914	0.875	0.775	0.688	0.643	0.759	0.855	0.692	0.573	0.671	0.643	0.444	0.289	0.112	0.106
NCI-H2347	0.903	0.697	0.635	0.571	0.632	0.46	0.385	0.469	0.422	0.439	0.494	0.562	0.433	0.347	0.327
LOU-NH91	0.74	0.731	0.714	0.735	0.725	0.449	0.541	0.523	0.536	0.57	0.581	0.938	0.661	0.475	0.506
LCLC-103H	1.06	1.01	1.01	1.19	1.01	0.452	0.546	0.466	0.441	0.5	0.763	0.771	0.372	0.252	0.282
EMC-BAC-2	0.738	0.755	0.76	0.681	0.642	0.519	0.515	0.516	0.503	0.499	0.39	0.392	0.236	0.179	0.279
NCI-H2228	0.469	0.517	0.41	0.593	0.428	0.985	0.519	0.713	0.674	0.967	0.73	0.601	0.581	0.13	0.0923
HOP-62	1.04	1	0.925	0.88	0.534	0.501	0.372	0.468	0.398	0.444	0.395	0.378	0.116	0.0547	0.0779
NCI-H727	0.988	0.953	0.704	0.614	0.317	0.681	0.641	0.67	0.75	0.659	1.17	0.847	0.819	0.477	0.451
COR-L 105	0.814	0.812	0.757	0.609	0.501	0.42	0.423	0.421	0.377	0.415	0.71	0.709	0.353	0.232	0.403
NCI-H358	0.596	0.744	0.629	0.588	0.525	0.13	0.131	0.12	0.146	0.136	0.621	0.479	0.264	0.0895	0.0817
SK-MES-1	0.958	1.02	1.01	0.914	0.909	0.384	0.324	0.337	0.329	0.35	1.14	1.02	0.351	0.162	0.216
LC-2-ad	0.478	0.448	0.388	0.31	0.416	0.497	0.489	0.479	0.481	0.478	0.612	0.63	0.508	0.214	0.202
H3255	0.874	0.884	0.825	0.79	0.726	0.291	0.316	0.319	0.296	0.31	0.668	0.642	0.334	0.239	0.304
A-427	0.91	1.13	0.894	0.976	0.799	0.534	0.519	0.517	0.5	0.491	0.546	0.403	0.309	0.231	0.237
NCI-H661	1	1.05	0.98	–	0.843	0.43	0.419	0.414	0.43	0.431	0.601	0.619	0.389	0.317	0.382
NCI-H1993	0.958	0.909	0.892	0.775	0.723	0.751	0.605	0.606	0.797	0.632	0.645	0.26	0.29	0.309	0.314
NCI-H1944	1.05	1.17	1	0.916	0.788	0.407	0.334	0.332	0.36	0.352	0.543	0.539	0.613	0.203	0.158
SK-LU-1	1.09	1.08	1.05	0.961	0.626	0.402	0.364	0.412	0.389	0.414	0.581	0.425	0.161	0.196	0.244
NCI-H1915	0.873	0.929	0.875	0.756	0.521	0.554	0.496	0.516	0.56	0.583	0.52	0.503	0.339	0.149	0.143
NCI-H650	0.789	0.697	0.569	0.506	0.567	0.349	0.315	0.331	0.322	0.352	0.446	0.306	0.169	0.126	0.143
